Earlier results, collected in patent US7417165B2, “Crystalline forms of pregabalin” (Teva Pharmaceutical Industries Ltd., priority 2005, dated 2008).

Key:
[1] = system: GAD (L-glutamic acid decarboxylase); conditions: background statement, no data
seizure = conditions: background statement, no data

CC(C)C[C@H](CN)CC(=O)O [(S)-Pregabalin, (S)-(+)-3-(aminomethyl)-5-methylhexanoic acid]
activation of GAD (L-glutamic acid decarboxylase) [1]: activate
protective effect on seizure (seizure): dose dependent protective effect
